Type in all cases: biochemical, Escherichia coli
Experiment [1] concerns protein synthesis in E. coli S30 extract, PANOx system. Briefly: Cell-free protein synthesis in the PANOx system (standard reaction mixture). On the procedure: A standard reaction mixture for a coupled transcription-translation reaction, herein referred to as the PANOx system (Kim and Swartz (2001), supra.) contains the following components: 57 mM HEPES-KOH (pH7.5), 1.2 mM ATP, 0.85 mM each of GTP, UTP and CTP, 1 mM DTT, 200 mM potassium glutamate, 80 mM ammonium acetate, 16 mM magnesium acetate, 34 μg/ml folinic acid, 170.6 μg/ml E. coli tRNA mixture, 13.3 μg/ml plasmid, 100 μg/ml T7 RNA polymerase, 2 mM each of 20 unlabeled amino acids, 11 μM [^14C]leucine, 2% Poly(ethylene glycol) 8000, 33 mM PEP, 0.33 mM nicotinamide adenine dinucleotide, 0.26 mM Coenzyme A, 2.7 mM sodium oxalate and 0.24 volumes of S30 extract. Prokaryotic cell-free protein synthesis is performed using a crude S30 extract derived from Escherichia coli K12 (strain A19 ΔtonA ΔtnaA ΔspeA ΔendA met+), with slight modifications from the protocol of Pratt, J. M. 1984. (Coupled transcription-translation in prokaryotic cell-free systems. In Transciption and translation: a practical approach. Hanes, B. D., and S. J. Higgins. (Eds.). p. 179-209. IRL Press, New York.) T7 RNA polymerase was prepared from E. coli strain BL21 (pAR1219) according to the procedures of Davanloo et al. 1984. (Cloning and expression of the gene for bacteriophage T7 RNA polymerase. Proc Natl Acad Sci USA 81:2035-2039.)
(§1) Reactions were incubated at 37° C. for 5-6 hours. The amount of synthesized protein is estimated from the measured TCA-insoluble radioactivities using a liquid scintillation counter (Beckman LS3801). (Kim et al. 1996). Soluble protein yields were determined as previously described. (Kim and Swartz 2000).

Experiment [2] has as its system CAT expression in E. coli S30 extract cell-free protein synthesis. On the procedure: as §1
Experiment [3] relates to oxidative phosphorylation (electron transport chain). Briefly: CAT synthesis in new system with inhibitor of oxidative phosphorylation, oxygen or argon headspace. Particulars: 20 μl batch, 37° C., 5 hours. On the procedure: In seeking to understand how this yield was accomplished, inhibitors of oxidative phosphorylation were tested to establish that this process was partially responsible for the protein production capability of this new technology. […] HQNO inhibits the electron transport chain part of oxidative phosphorylation. All cases are 20 μl batch reactions, and were incubated at 37° C. for 5 hours. The head spaces of the batch reactors were filled with either oxygen or argon, an inert gas. […]. Furthermore, protein synthesis should be unaffected upon the addition of HQNO in the cases where argon is present and oxygen is not available.

Read-outs that look alike come from different tables or passages of the source.

Consider `O=[N+]([O-])c1ccc(O)c([N+](=O)[O-])c1` [2,4-dinitrophenol], for which the “protein synthesis yields in the PANOx system with inhibitor of oxidative phosphorylation” value in experiment [1] (PANOx system) is listed as “unaffected”.

For the compound `CC(C)(COP(=O)(O)OP(=O)(O)OC[C@H]1O[C@@H](n2cnc3c(N)ncnc32)[C@H](O)[C@@H]1OP(=O)(O)O)[C@@H](O)C(=O)NCCC(=O)NCCS` [CoA, Coenzyme A], in experiment [2] (Cytomim system, CAT, 15 μl, 6 hours), the “effect of removal of the cofactor on relative protein production” value was “no significant effect”.

Consider `CCCCCCCc1cc(O)c2ccccc2[n+]1[O-]` [HQNO, 2-heptyl-4-hydroxyquinoline-N-oxide], for which the “CAT synthesis after inhibitor addition” value was “unaffected” in experiment [3] (argon headspace) and “substantially decreases” in experiment [3] (presence of oxygen, with or without pyruvate).

As for `[N-]=[N+]=[N-]` [azide], in experiment [1], the “protein synthesis yields in the PANOx system with inhibitor of oxidative phosphorylation” value is listed as “unaffected”.

For `N#CC(C#N)=NNc1cccc(Cl)c1` [carbonyl-cyanide-m-chlorophenylhydrazone], the “protein synthesis yields in the PANOx system with inhibitor of oxidative phosphorylation” value in experiment [1] (PANOx system) is given as “unaffected”.

As to `CC(=O)[O-].CC(=O)[O-].[Mg+2]` [magnesium acetate], the “optimal magnesium value in the standard reaction mixture” value in experiment [1] worked out at 19.3 mM.

Turning to `N[C@@H](CCC(=O)[O-])C(=O)[O-].[Mg+2]` [magnesium glutamate], the “optimal magnesium value in the standard reaction mixture” value in experiment [1] (standard reaction mixture, includes Mg from cell extract) was 23.3 mM.

As to `[Mg+2]` [magnesium], the “optimum magnesium concentration for protein expression” value in experiment [2] (new environment, with 33 mM sodium pyruvate, includes Mg from cell extract) is “approximately 11 mM”.

Take `O=C(CC(=O)C(F)(F)F)c1cccs1` [thenoyltrifluoroacetone]: the “protein synthesis yields in the PANOx system with inhibitor of oxidative phosphorylation” value in experiment [1] (PANOx system) was “unaffected”.
